Here are results for five substances from patent US20040185510A1, “Use of labelled CCK-B receptor ligands for the detection and localization of malignant human tumours” (priority 1996, published 2004).

Non-standard residues stand in square brackets, D forms with d. No end group written: not given here. Nle = CCCC[C@H](N)C(=O)O

Experiment [1] deals with T1, CCK-B receptors in medullary thyroid carcinoma (MTC) tissue sections (Homo sapiens, UniProt P32239).
T1 construct: Receptor autoradiography is performed on 10- and 20-μm thick cryostat sections of the various tumour samples; from tissue; host or cells: human medullary thyroid carcinoma (MTC) tissue sections
T1 sequence (P32239 1-447): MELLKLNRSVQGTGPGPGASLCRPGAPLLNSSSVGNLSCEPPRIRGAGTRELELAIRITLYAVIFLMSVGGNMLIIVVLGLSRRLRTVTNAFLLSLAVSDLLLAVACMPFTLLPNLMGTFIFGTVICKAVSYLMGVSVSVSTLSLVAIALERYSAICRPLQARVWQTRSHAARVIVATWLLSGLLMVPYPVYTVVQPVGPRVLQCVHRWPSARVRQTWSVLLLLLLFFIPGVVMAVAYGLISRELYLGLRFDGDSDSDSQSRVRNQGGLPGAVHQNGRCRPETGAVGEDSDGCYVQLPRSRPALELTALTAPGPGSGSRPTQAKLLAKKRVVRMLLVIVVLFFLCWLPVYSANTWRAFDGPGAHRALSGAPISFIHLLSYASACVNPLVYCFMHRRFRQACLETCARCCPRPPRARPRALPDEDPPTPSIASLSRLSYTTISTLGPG
The experiment in a line: Receptor autoradiography: displacement of [125I]-desulfated-CCK-10 (compound 13 or 14) binding to MTC tissue sections. The following applies: for affinity of the mono 125I-iodinated radioligand: the two mono-iodinated compounds compared with each other.
Description: The tissues are cut on a cryostat, mounted on microscopes slides, and then stored at −20° C. for at least 3 days to improve adhesion of the tissue to the slide. The slide-mounted tissue sections are allowed to reach room temperature and are preincubated in 50 mmol/l Tris-HCl, 130 mmol/l NaCl, 4.7 mmol/l KCl, 5 mmol/l MgCl2, 1 mmol/l ethylene glycol-bi(β-aminoethylether)-N,N,N′,N′-tetraacetic acid, and 0.5% bovine serum albumin, pH 7.4 (preincubation solution), for 30 min. at 25° C. The slides are then incubated in a solution containing the same medium as the preincubation solution except the bovine serum albumin is omitted, and the following compounds are added: 20000 dpm/100 μl of ^125I-CCK, 0.025% bacitracin, 1 mmol/l dithiothreitol, 2 μg/ml chymostatin, and 4 μg/ml leupeptin, pH=6.5. The slides are incubated at room temperature with the radioligand for 150 min., as described by Mantyh et al. (Gasteroenterology 1994, 107, 1019-30). To estimate non-specific binding, paired serial sections are incubated as described above, except that CCK-8 (sulfated) is added to the incubation medium. After the incubation, the slides are rinsed with four washes of 30 sec each in ice-cold preincubation solution, pH 7.4, dipped in ice-cold water, and then quickly dried in a refrigerator under a stream of cold air. The sections are subsequently exposed to a 3H-Ultrofilm for 1 week, to detect the precise location of the radioactivity.
Each point represents the optical density of binding measured in the tumour area. Non-specific binding is subtracted from all values.

The target of experiment [2] is T1, CCK-B receptors in medullary thyroid carcinoma (MTC) tissue sections. The experiment in a line: Receptor autoradiography: displacement of [125I]-CCK-10 analog (compound 15) binding to MTC tissue sections. The following applies: increasing concentrations of unlabelled peptide, optical density in tumour area. (In a radioligand displacement assay an active substance lowers the binding of a labelled ligand.)
Description: Receptor autoradiography is performed on 10- and 20-μm thick cryostat sections of the various tumour samples, as described by Reubi et al. (Cancer Res. 1990, 50, 5969-5977).
The tissues are cut on a cryostat, mounted on microscopes slides, and then stored at −20° C. for at least 3 days to improve adhesion of the tissue to the slide. The slide-mounted tissue sections are allowed to reach room temperature and are preincubated in 50 mmol/l Tris-HCl, 130 mmol/l NaCl, 4.7 mmol/l KCl, 5 mmol/l MgCl2, 1 mmol/l ethylene glycol-bi(β-aminoethylether)-N,N,N′,N′-tetraacetic acid, and 0.5% bovine serum albumin, pH 7.4 (preincubation solution), for 30 min. at 25° C. […] The sections are subsequently exposed to a 3H-Ultrofilm for 1 week, to detect the precise location of the radioactivity. […]
Tissue sections are incubated with 20,000 cpm/100 μl [^125I]-CCK-10 and increasing concentrations of unlabelled CCK-8 (unsulfated)(▴), CCK-8 (sulfated) (•) or somastotatin (∘). Each point represents the optical density of binding measured in the tumour area. […]
The displacement curves of DTPA substituted CCK-analogs, prepared as described in Example 2, are measured in order to determine the effect of the DTPA group and of substitution of some amino acids by other amino acids. […]
Each point represents the optical density of binding measured in the tumour area. […]

As for “[^125I-D-Tyr]-Gly-Asp-Tyr-Nle-Gly-Trp-Nle-Asp-Phe-NH2 [compound 13]”, the “affinity of the mono 125I-iodinated radioligand” value in experiment [1] was “same affinity”. Regarding [dY]GDY[Nle]GW[Nle]DF-NH2 [compound 12], the “displacement of [125I]-desulfated-CCK-10 (compound 13 or 14) binding” value in experiment [1] (increasing concentrations of unlabelled peptide) was “complete displacement”. As to “^115In-DTPA-DAsp-Tyr-Nle-Gly-Trp-Nle-Asp-Phe-NH2 [compound 26]”, the “displacement of [125I]-CCK-10 analog (compound 15) binding” value in experiment [2] is given as “complete displacement”. “D-Tyr-Gly-Asp-[^125I-Tyr]-Nle-Gly-Trp-Nle-Asp-Phe-NH2 [compound 14]”: in experiment [1], the “affinity of the mono 125I-iodinated radioligand” value is reported as “same affinity”. Regarding “^115In-DTPA-Asp-Tyr-Nle-Gly-Trp-Nle-Asp-Phe-NH2 [compound 25]”, the “displacement of [125I]-CCK-10 analog (compound 15) binding” value in experiment [2] was “complete displacement”.
